# Molecular target: T1, RORc ligand binding domain (Homo sapiens, UniProt P51449)
# T1 sequence (P51449 269-508 limits assumed): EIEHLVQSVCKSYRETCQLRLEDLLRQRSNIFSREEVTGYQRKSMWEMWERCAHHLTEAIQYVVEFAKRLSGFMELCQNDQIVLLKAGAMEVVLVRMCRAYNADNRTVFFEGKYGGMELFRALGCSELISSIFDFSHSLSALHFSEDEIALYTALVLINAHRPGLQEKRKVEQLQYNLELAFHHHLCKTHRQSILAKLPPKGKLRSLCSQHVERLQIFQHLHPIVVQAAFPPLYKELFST
# Assay: In vitro RORc ligand binding assay (25-[3H]hydroxycholesterol displacement)
row,SMILES,IC50 [nM]
1,"C[C@H]1CC[C@H](c2ccccc2)S(=O)(=O)N1Cc1cc(F)c(C2(C(=O)n3cccn3)CCOCC2)cc1F [Example 39, [4-[2,5-difluoro-4-[[(3S,6R)-3-methyl-1,1-dioxo-6-phenyl-thiazinan-2-yl]methyl]phenyl]tetrahydropyran-4-yl]-pyrazol-1-yl-methanone]",27.3
2,"C[C@H]1CC[C@H](c2ccccc2)S(=O)(=O)N1Cc1ccc(C2(Cn3cnnc3)CCOCC2)cc1F [Example 40, (3S,6R)-2-[[2-fluoro-4-[4-(1,2,4-triazol-4-ylmethyl)tetrahydropyran-4-yl]phenyl]methyl]-3-methyl-6-phenyl-thiazinane 1,1-dioxide]",118
3,"Cc1nnc(NCC2(c3ccc(CN4[C@@H](C)CC[C@H](c5ccccc5)S4(=O)=O)c(F)c3)CCOCC2)o1 [Example 41, N-[[4-[3-fluoro-4-[[(3S,6R)-3-methyl-1,1-dioxo-6-phenyl-thiazinan-2-yl]methyl]phenyl]tetrahydropyran-4-yl]methyl]-5-methyl-1,3,4-oxadiazol-2-amine]",41.8
4,"C[C@H]1CC[C@H](c2ccccc2)S(=O)(=O)N1Cc1ccc(C2(c3nnco3)CCOCC2)cc1F [Example 42, (3S,6R)-2-[[2-fluoro-4-[4-(1,3,4-oxadiazol-2-yl)tetrahydropyran-4-yl]phenyl]methyl]-3-methyl-6-phenyl-thiazinane 1,1-dioxide]",54.6
5,"Cc1nnc(C2(c3ccc(CN4[C@@H](C)CC[C@H](c5ccccc5)S4(=O)=O)c(F)c3)CCOCC2)o1 [Example 43, (3S,6R)-2-[[2-fluoro-4-[4-(5-methyl-1,3,4-oxadiazol-2-yl)tetrahydropyran-4-yl]phenyl]methyl]-3-methyl-6-phenyl-thiazinane 1,1-dioxide]",142
6,"C[C@H]1CC[C@H](c2ccccc2)S(=O)(=O)N1Cc1ccc(C2(c3nnc(CO)o3)CCOCC2)cc1F [Example 44, [5-[4-[3-fluoro-4-[[(3S,6R)-3-methyl-1,1-dioxo-6-phenyl-thiazinan-2-yl]methyl]phenyl]tetrahydropyran-4-yl]-1,3,4-oxadiazol-2-yl]methanol]",102
7,"C[C@H]1CC[C@H](c2ccccc2)S(=O)(=O)N1Cc1ccc(C2(n3cnnc3)CCOCC2)cc1F [Example 45, (3S,6R)-2-[[2-fluoro-4-[4-(1,2,4-triazol-4-yl)tetrahydropyran-4-yl]phenyl]methyl]-3-methyl-6-phenyl-thiazinane 1,1-dioxide]",87.7
8,"C[C@H]1CC[C@H](c2ccccc2)S(=O)(=O)N1Cc1ccc(C2(c3nnc[nH]3)CCOCC2)cc1F [Example 46, (3S,6R)-2-[[2-fluoro-4-[4-(4H-1,2,4-triazol-3-yl)tetrahydropyran-4-yl]phenyl]methyl]-3-methyl-6-phenyl-thiazinane 1,1-dioxide]",26.6
9,"Cc1nnc(C2(c3ccc(CN4[C@@H](C)CC[C@H](c5ccccc5)S4(=O)=O)c(F)c3)CCOCC2)[nH]1 [Example 47, (3S,6R)-2-[[2-fluoro-4-[4-(5-methyl-4H-1,2,4-triazol-3-yl)tetrahydropyran-4-yl]phenyl]methyl]-3-methyl-6-phenyl-thiazinane 1,1-dioxide]",114
10,"Cc1nnc(C2(c3cc(F)c(CN4[C@@H](C)CC[C@H](c5ccccc5)S4(=O)=O)cc3F)CCOCC2)[nH]1 [Example 48, (3S,6R)-2-[[2,5-difluoro-4-[4-(5-methyl-4H-1,2,4-triazol-3-yl)tetrahydropyran-4-yl]phenyl]methyl]-3-methyl-6-phenyl-thiazinane 1,1-dioxide]",21.6
11,"Cc1nnc(C2(c3cc(F)c(CN4[C@@H](C)CC[C@H](c5ccccc5)S4(=O)=O)cc3F)CC2)[nH]1 [Example 49, (3S,6R)-2-[[2,5-difluoro-4-[1-(5-methyl-4H-1,2,4-triazol-3-yl)cyclopropyl]phenyl]methyl]-3-methyl-6-phenyl-thiazinane 1,1-dioxide]",40.4
12,"C[C@H]1CC[C@H](c2ccccc2)S(=O)(=O)N1Cc1cc(F)c(C2(c3nnc[nH]3)CCOCC2)cc1F [Example 50, (3S,6R)-2-[[2,5-difluoro-4-[4-(4H-1,2,4-triazol-3-yl)tetrahydropyran-4-yl]phenyl]methyl]-3-methyl-6-phenyl-thiazinane 1,1-dioxide]",28.6
13,"CCOC(=O)Cn1cnc(C2(c3cc(F)c(CN4[C@@H](C)CC[C@H](c5ccccc5)S4(=O)=O)cc3F)CCOCC2)n1 [Example 52, ethyl 2-[3-[4-[2,5-difluoro-4-[[(3S,6R)-3-methyl-1,1-dioxo-6-phenyl-thiazinan-2-yl]methyl]phenyl]tetrahydropyran-4-yl]-1,2,4-triazol-1-yl]acetate]",71
14,"C[C@H]1CC[C@H](c2ccccc2)S(=O)(=O)N1Cc1cc(F)c(C2(c3ncn(CC(N)=O)n3)CCOCC2)cc1F [Example 53, 2-[3-[4-[2,5-difluoro-4-[[(3S,6R)-3-methyl-1,1-dioxo-6-phenyl-thiazinan-2-yl]methyl]phenyl]tetrahydropyran-4-yl]-1,2,4-triazol-1-yl]acetamide]",103
15,"C[C@H]1CC[C@H](c2ccccc2)S(=O)(=O)N1Cc1cc(F)c(C2(c3ncn(CCO)n3)CCOCC2)cc1F [Example 54, 2-[3-[4-[2,5-difluoro-4-[[(3S,6R)-3-methyl-1,1-dioxo-6-phenyl-thiazinan-2-yl]methyl]phenyl]tetrahydropyran-4-yl]-1,2,4-triazol-1-yl]ethanol]",57
16,"C[C@H]1CC[C@H](c2ccccc2)S(=O)(=O)N1Cc1cc(F)c(C2(c3nnc(CO)o3)CCOCC2)cc1F [Example 57, [5-[4-[2,5-difluoro-4-[[(3S,6R)-3-methyl-1,1-dioxo-6-phenyl-thiazinan-2-yl]methyl]phenyl]tetrahydropyran-4-yl]-1,3,4-oxadiazol-2-yl]methanol]",28.2
17,"C[C@H]1CC[C@H](c2ccccc2)S(=O)(=O)N1Cc1ccc(C2(OCc3nnc[nH]3)COC2)cc1F [Example 59, (3S,6R)-2-[[2-fluoro-4-[3-(4H-1,2,4-triazol-3-ylmethoxy)oxetan-3-yl]phenyl]methyl]-3-methyl-6-phenyl-thiazinane 1,1-dioxide]",23.2
18,"C[C@H]1CC[C@H](c2ccccc2)S(=O)(=O)N1Cc1cc(F)c(C2(c3nnc(N)o3)CCOCC2)cc1F [Example 61, 5-[4-[2,5-difluoro-4-[[(3S,6R)-3-methyl-1,1-dioxo-6-phenyl-thiazinan-2-yl]methyl]phenyl]tetrahydropyran-4-yl]-1,3,4-oxadiazol-2-amine]",19.2
19,"C[C@H]1CC[C@H](c2ccccc2)S(=O)(=O)N1Cc1ccc(C2(NCc3cnc[nH]3)CCOCC2)cc1F [Example 62, 4-[3-fluoro-4-[[(3S,6R)-3-methyl-1,1-dioxo-6-phenyl-thiazinan-2-yl]methyl]phenyl]-N-(1H-imidazol-5-ylmethyl)tetrahydropyran-4-amine]",20.5

# The next compounds have a lower IC50 than those just listed; values first:
row,IC50 [nM],SMILES
1,10.7,"C[C@H]1CC[C@H](c2ccccc2)S(=O)(=O)N1Cc1ccc(C2(NCc3ncnn3C)CCOCC2)cc1F [Example 55, 4-[3-fluoro-4-[[(3S,6R)-3-methyl-1,1-dioxo-6-phenyl-thiazinan-2-yl]methyl]phenyl]-N-[(2-methyl-1,2,4-triazol-3-yl)methyl]tetrahydropyran-4-amine]"
2,7.2,"C[C@H]1CC[C@H](c2ccccc2)S(=O)(=O)N1Cc1ccc(C2(OCc3nnc[nH]3)CCOCC2)cc1F [Example 56, (3S,6R)-2-[[2-fluoro-4-[4-(4H-1,2,4-triazol-3-ylmethoxy)tetrahydropyran-4-yl]phenyl]methyl]-3-methyl-6-phenyl-thiazinane 1,1-dioxide]"
3,6.6,"C[C@H]1CC[C@H](c2ccccc2)S(=O)(=O)N1Cc1cc(F)c(C2(c3n[nH]c(=O)o3)CCOCC2)cc1F [Example 58, 5-[4-[2,5-difluoro-4-[[(3S,6R)-3-methyl-1,1-dioxo-6-phenyl-thiazinan-2-yl]methyl]phenyl]tetrahydropyran-4-yl]-3H-1,3,4-oxadiazol-2-one]"
4,4.2,"CCOC(=O)c1nnc(C2(c3cc(F)c(CN4[C@@H](C)CC[C@H](c5ccccc5)S4(=O)=O)cc3F)CCOCC2)o1 [Example 60, ethyl 5-[4-[2,5-difluoro-4-[[(3S,6R)-3-methyl-1,1-dioxo-6-phenyl-thiazinan-2-yl]methyl]phenyl]tetrahydropyran-4-yl]-1,3,4-oxadiazole-2-carboxylate]"
5,6.7,"C[C@H]1CC[C@H](c2ccccc2)S(=O)(=O)N1Cc1ccc(C2(NCc3cc[nH]n3)CCOCC2)cc1F [Example 63, 4-[3-fluoro-4-[[(3S,6R)-3-methyl-1,1-dioxo-6-phenyl-thiazinan-2-yl]methyl]phenyl]-N-(1H-pyrazol-3-ylmethyl)tetrahydropyran-4-amine]"
6,10.1,"C[C@H]1CC[C@H](c2ccccc2)S(=O)(=O)N1Cc1ccc(C2(NCc3ncc[nH]3)CCOCC2)cc1F [Example 64, 4-[3-fluoro-4-[[(3S,6R)-3-methyl-1,1-dioxo-6-phenyl-thiazinan-2-yl]methyl]phenyl]-N-(1H-imidazol-2-ylmethyl)tetrahydropyran-4-amine]"
7,3.6,"C[C@H]1CC[C@H](c2ccccc2)S(=O)(=O)N1Cc1ccc(C2(NCc3cocn3)CCOCC2)cc1F [Example 65, 4-[3-fluoro-4-[[(3S,6R)-3-methyl-1,1-dioxo-6-phenyl-thiazinan-2-yl]methyl]phenyl]-N-(oxazol-4-ylmethyl)tetrahydropyran-4-amine]"
8,6.6,"C[C@H]1CC[C@H](c2ccccc2)S(=O)(=O)N1Cc1ccc(C2(NCc3cnccn3)CCOCC2)cc1F [Example 66, 4-[3-fluoro-4-[[(3S,6R)-3-methyl-1,1-dioxo-6-phenyl-thiazinan-2-yl]methyl]phenyl]-N-(pyrazin-2-ylmethyl)tetrahydropyran-4-amine]"
9,9.3,"C[C@H]1CC[C@H](c2ccccc2)S(=O)(=O)N1Cc1ccc(C2(NCc3ncccn3)CCOCC2)cc1F [Example 67, 4-[3-fluoro-4-[[(3S,6R)-3-methyl-1,1-dioxo-6-phenyl-thiazinan-2-yl]methyl]phenyl]-N-(pyrimidin-2-ylmethyl)tetrahydropyran-4-amine]"
